Patent US8088887B2, “Peptide-conjugates that bind to VEGF-stimulated or tumor vasculature and methods of treatment” (Academia Sinica, priority 2007, dated 2012)
“Also recorded” adds a separate entry of the source.

Legend:
[1] = tested on: NSCLC tumor mass (CL1-5-derived tumors); assay: Peptide competitive inhibition of PC5-52 phage homing, lung cancer xenografts; type: in vivo, SCID mice
Procedure: To investigate the targeting ability of PC5-52, phages were injected into the tail vein of SCID mice bearing human lung cancer cell-derived tumors and recovered after perfusion. We determined the titers of the phages in tumor mass and other normal organs. The phage clones, or control helper phage (insertless phage), were injected into the tail vein (i.v.) of SCID mice bearing human lung cancer tumor xenografts for 8 min or 24 h. After perfusion, xenograft tumors and organs were removed and the recovered phage titered. In peptide competitive inhibition experiments, described below, phage clones were co-injected with 100 μg synthetic peptide. After injection of candidate or control phage clones, the organs and tumors were removed and divided into two parts. One part was titered by ER2738, and another part was embedded in Optimal Cutting Temperature (OCT, Tissue-Tek, NL, USA). The OCT-embedded frozen tissues were sectioned at 5 microns and transferred to cold PBS buffer. Then, the sections were fixed with acetone-methanol (1:1), washed with PBS and immersed in blocking buffer (1% BSA in PBS) for 1 h. The blocked samples were then incubated with rat anti-mouse CD31 (BD Pharmingen, Mass., USA.), rabbit anti-rat Ab (Stressgen, Canada) and immersed in Rhodamine labeled goat anti-rabbit antibody (Jackson ImmunoResearch, Pa., USA.). […]

oral cancer xenografts = assay: Peptide competitive inhibition of IVO-2 phage homing, oral cancer xenografts; type: in vivo, SCID mice

Sequence | inhibition of PC5-52 homing to NSCLC tumor mass ([1]; 100 μg peptide co-injected with phage) [%] | inhibition of tumor homing ability of PC5-52 ([1]; co-injected peptide, CL1-5-derived tumors, FIG. 2B/4B) | inhibition of IVO-2 homing to oral cancer xenografts (oral cancer xenografts; coinjection of 100 μg peptide) [%] | inhibition of IVO-2 homing to tumor tissue (oral cancer xenografts; co-injected peptide, FIG. 2D)
SVSVGMKPSPRP [SP5-52] | 97 | inhibited markedly; also recorded: markedly inhibited | 95.9 | –
RLLDTNRPLLPY [Control peptide, synthetic control peptide, reference compound] | – | – | – | could not inhibit
